Laboratory results: the supplement of paper PMC13380429

Experiments:
Details in all cases: 72 h
[1] = test system: HepG2; assay: cell viability relative to DMSO; higher = less toxic
[2] = test system: Calu-3; assay: as above
[3] = test system: Vero E6; assay: as above
[4] = test system: U2OS; assay: as above
[5] = test system: Caco-2; assay: as above
[6] = test system: HepG2; assay: relative viability EC50 (midpoint between 100% and the lowest measured viability); higher = less toxic
[7] = test system: Calu-3; assay: as above
[8] = test system: Vero E6; assay: as above
[9] = test system: U2OS; assay: as above
[10] = test system: Caco-2; assay: as above
[11] = test system: HepG2; assay: drug sensitivity score (DSS) for viability; higher = more toxic; extreme values may be limits of the assay
[12] = test system: Calu-3; assay: as above
[13] = test system: Vero E6; assay: as above
[14] = test system: U2OS; assay: as above
[15] = test system: Caco-2; assay: as above

| Compound | cell viability ([1]; 1 nM) [%] | cell viability ([1]; 10 nM) [%] | cell viability ([1]; 100 nM) [%] | cell viability ([1]; 1000 nM) [%] | cell viability ([1]; 10000 nM) [%] | cell viability ([2]; 1 nM) [%] | cell viability ([2]; 10 nM) [%] | cell viability ([2]; 100 nM) [%] | cell viability ([2]; 1000 nM) [%] | cell viability ([2]; 10000 nM) [%] | cell viability ([3]; 1 nM) [%] | cell viability ([3]; 10 nM) [%] | cell viability ([3]; 100 nM) [%] | cell viability ([3]; 1000 nM) [%] | cell viability ([3]; 10000 nM) [%] | cell viability ([4]; 1 nM) [%] | cell viability ([4]; 10 nM) [%] | cell viability ([4]; 100 nM) [%] | cell viability ([4]; 1000 nM) [%] | cell viability ([4]; 10000 nM) [%] | cell viability ([5]; 1 nM) [%] | cell viability ([5]; 10 nM) [%] | cell viability ([5]; 100 nM) [%] | cell viability ([5]; 1000 nM) [%] | cell viability ([5]; 10000 nM) [%] | relative viability EC50 [6] [µM] | relative viability EC50 [7] [µM] | relative viability EC50 [8] [µM] | relative viability EC50 [9] [µM] | relative viability EC50 [10] [µM] | drug sensitivity score [11] | drug sensitivity score [12] | drug sensitivity score [13] | drug sensitivity score [14] | drug sensitivity score [15] |
| --- | --- | --- | --- | --- | --- | --- | --- | --- | --- | --- | --- | --- | --- | --- | --- | --- | --- | --- | --- | --- | --- | --- | --- | --- | --- | --- | --- | --- | --- | --- | --- | --- | --- | --- | --- |
| O=C1CCC[C@@H]2[C@H]3CCCN4CCC[C@@H](CN12)[C@@H]34 [matrine] | 89.9 | 108 | 85.8 | 111 | 103 | 97 | 93.5 | 100 | 98.5 | 100 | 96.8 | 98.7 | 93.3 | 99.1 | 104 | 96.1 | 96.4 | 96.4 | 93.7 | 99.1 | 97.6 | 94 | 94.9 | 91.4 | 90.4 | > 10 | > 10 | > 10 | > 10 | > 10 | 0 | 0 | 0 | 0 | 0 |
| CC(C)(C)NC[C@H](O)c1ccc(O)cc1Cl [meluadrine] | 105 | 106 | 103 | 95 | 105 | 92.8 | 104 | 98.3 | 104 | 104 | 109 | 102 | 102 | 99.9 | 104 | 99.3 | 101 | 96.4 | 100 | 96.4 | 97.9 | 97.6 | 93.9 | 97.6 | 90.7 | > 10 | > 10 | > 10 | > 10 | > 10 | 0 | 0 | 0 | 0 | 0 |
| COP(=O)(OC)OC(c1ccc(Cl)cc1)P(=O)(OC)OC (stereo not given) [mifobate] | 107 | 98.5 | 92.8 | 99.8 | 93.7 | 93.6 | 94.1 | 85.1 | 96.7 | 96.3 | 101 | 94.5 | 98 | 92.5 | 100 | 101 | 97.5 | 101 | 94.4 | 98.3 | 106 | 94.5 | 98 | 107 | 105 | > 10 | > 10 | > 10 | > 10 | > 10 | 0 | 0 | 0 | 0 | 0 |
| CCOC(=O)Nc1cc2c(c(N)n1)N=C(c1ccccc1)[C@H](C)N2 [mivobulin] | 99.6 | 42.9 | 24.1 | 21.5 | 22.9 | 95.7 | 65.2 | 37.5 | 40.7 | 42.7 | 94.3 | 20.2 | 8.2 | 9.9 | 13.5 | 95.7 | 38.6 | 20.7 | 23.3 | 21.9 | 103 | 52.5 | 48.7 | 47.3 | 42.2 | 0.0067 | 0.0083 | 0.0039 | 0.005 | 0.0055 | 31.1 | 23.7 | 38.5 | 32.4 | 23.8 |
| CCCC[C@H](NC(=O)[C@@H]1[C@@H]2[C@H](CN1C(=O)[C@@H](NC(=O)NC1(CS(=O)(=O)C(C)(C)C)CCCCC1)C(C)(C)C)C2(C)C)C(=O)C(=O)NC1CC1 [narlaprevir] | 102 | 112 | 96.3 | 103 | 94.7 | 90.9 | 108 | 92.5 | 94.5 | 107 | 98.1 | 100 | 102 | 99.5 | 87.8 | 104 | 98.8 | 100 | 96.9 | 97.1 | 100 | 96.4 | 102 | 93.8 | 95.5 | > 10 | > 10 | > 10 | > 10 | > 10 | 0 | 0 | 0.1 | 0 | 0 |
| CCC[N+]12[C@H](O)[C@@H](CC)[C@@H]3C[C@H]1[C@@H]1N(C)c4ccccc4[C@]14C[C@H]2[C@@H]3[C@H]4O [neo-gilurytmal] | 93.4 | 99.1 | 92.3 | 97.8 | 104 | 104 | 98 | 96.4 | 100 | 91.4 | 100 | 99.4 | 98.4 | 97.4 | 95.7 | 100 | 95.7 | 101 | 91.5 | 101 | 103 | 99.3 | 92.6 | 86.2 | 93.1 | > 10 | > 10 | > 10 | > 10 | > 10 | 0 | 0 | 0 | 0 | 1.3 |
| NCC(O)c1ccc(O)cc1 (stereo not given) [octopamine] | 91.7 | 103 | 95.9 | 97.5 | 117 | 108 | 105 | 93 | 108 | 95.6 | 106 | 96.6 | 101 | 85.1 | 100 | 95.1 | 97.3 | 101 | 96.5 | 95.6 | 87.1 | 96.9 | 94 | 100 | 86.1 | > 10 | > 10 | > 10 | > 10 | > 10 | 0 | 0 | 0 | 0 | 0.1 |
